The test system of data set [1] is Beta-TC6. Put plainly: Increase in insulin release in mouse BetaTC6 cells at 5 uM incubated for 2 hrs by ELISA. In kind it is functional.
Data set [2] concerns the target T1, N-terminal kinase-like protein (Mus musculus) (UniProt Q9EQC5).
T1 sequence (whole entry): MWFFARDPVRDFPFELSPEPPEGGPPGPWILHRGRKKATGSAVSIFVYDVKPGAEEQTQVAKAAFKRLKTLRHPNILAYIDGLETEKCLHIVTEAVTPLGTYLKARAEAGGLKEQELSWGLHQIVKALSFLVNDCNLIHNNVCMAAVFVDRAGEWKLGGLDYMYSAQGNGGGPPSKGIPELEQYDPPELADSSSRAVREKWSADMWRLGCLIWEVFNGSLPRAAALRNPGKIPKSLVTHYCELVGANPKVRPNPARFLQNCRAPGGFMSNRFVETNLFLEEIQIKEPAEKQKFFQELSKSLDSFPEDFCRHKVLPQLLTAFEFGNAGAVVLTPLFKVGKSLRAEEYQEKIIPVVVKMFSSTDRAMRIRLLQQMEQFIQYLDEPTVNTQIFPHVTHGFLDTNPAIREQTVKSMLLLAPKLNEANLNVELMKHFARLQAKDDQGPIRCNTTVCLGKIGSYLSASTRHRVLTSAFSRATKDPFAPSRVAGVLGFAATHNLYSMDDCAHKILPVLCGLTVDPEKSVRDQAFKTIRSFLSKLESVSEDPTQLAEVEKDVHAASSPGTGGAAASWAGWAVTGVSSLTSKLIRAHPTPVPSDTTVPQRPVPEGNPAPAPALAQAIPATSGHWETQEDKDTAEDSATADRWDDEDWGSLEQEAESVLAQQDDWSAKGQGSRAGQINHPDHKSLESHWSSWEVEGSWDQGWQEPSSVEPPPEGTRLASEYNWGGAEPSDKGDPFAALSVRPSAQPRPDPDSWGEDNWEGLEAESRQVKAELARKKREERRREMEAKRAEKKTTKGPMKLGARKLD
Put plainly: Inhibition of GRK5 in mouse C2C12 cells assessed as increase in 2-NBDG uptake at 5 uM after 1 hr relative to DMSO. Format: cell-based.

In data set [3] the test system is Beta-TC6. Description: Effect on insulin release in mouse BetaTC6 cells incubated for 2 hrs by ELISA. Format: functional, cell-based. On the technique in general: ELISA stands for enzyme-linked immunosorbent assay.
In data set [4] the target is RAC-alpha serine/threonine-protein kinase (Mus musculus) (UniProt P31750). Description: Inhibition of Akt1 in mouse BetaTC6 cells assessed as increase in insulin release at 10 uM incubated for 2 hrs by ELISA. In kind it is cell-based. Also noted: scale not given: the % may be the effect or the level left. The following applies: Beta-TC6.
The nature of data set [5]: Cytotoxic activity against mouse BetaTC6 cells assessed as inhibition of cell proliferation at 10 uM incubated for 72 hrs by MTT assay. The conditions noted are these: beta-tc6, 72 h. In kind it is cell-based. Background: Tetrazolium assays rely on reduction of a dye to a coloured formazan, in cell work by metabolically active cells.
Data set [6] relates to C2C12. Description: Cytotoxic activity against mouse C2C12 cells assessed as inhibition of cell proliferation of at 2 uM incubated for 72 hrs by MTT assay. Format: cell-based. The conditions noted are these: c2c12, 72 h.
The target of data set [7] is T1, N-terminal kinase-like protein (Mus musculus). Description: Inhibition of Scyl1 in mouse BetaTC6 cells assessed as increase in insulin release at 2 to 10 uM incubated for 2 hrs in presence of high glucose media by ELISA. Format: cell-based. The following applies: Beta-TC6.
Data set [8] deals with C2C12. Description: Cytotoxic activity against mouse C2C12 cells assessed as inhibition of cell proliferation of at 2 to 10 uM incubated for 72 hrs by MTT assay. The conditions noted are these: c2c12, 72 h. In kind it is cell-based.
The test system of data set [9] is Beta-TC6. Put plainly: Increase in insulin release in mouse BetaTC6 cells assessed as relative insulin release activity at 10 uM incubated for 2 to 4 hrs by FRET based HTRF assay relative to sunitinib. Format: functional. (TR-FRET usually uses a lanthanide donor and a delayed reading to cut background.)
The nature of data set [10]: Effect on insulin release in mouse BetaTC6 cells assessed as ratio of insulin release incubated for 2 hrs in presence of low glucose media by ELISA relative to DMSO. The following applies: beta-tc6, 2 h. Format: cell-based.
A short description of data set [11]: Cytotoxic activity against mouse BetaTC6 cells assessed as inhibition of cell proliferation at 2 to 10 uM incubated for 72 hrs by MTT assay. In kind it is cell-based. The conditions noted are these: beta-tc6, 72 h.
Data set [12] has as its target T1, N-terminal kinase-like protein (Mus musculus). Description: Inhibition of Scyl1 in mouse BetaTC6 cells assessed as reduction in increase in insulin release at 5 uM incubated for 2 hrs by ELISA. Format: cell-based. The following applies: Beta-TC6.

Activity calls are given as the source filed them. The rule behind the calls is not given here.

Sequence of RAC-alpha serine/threonine-protein kinase (Mus musculus) (P31750 whole entry): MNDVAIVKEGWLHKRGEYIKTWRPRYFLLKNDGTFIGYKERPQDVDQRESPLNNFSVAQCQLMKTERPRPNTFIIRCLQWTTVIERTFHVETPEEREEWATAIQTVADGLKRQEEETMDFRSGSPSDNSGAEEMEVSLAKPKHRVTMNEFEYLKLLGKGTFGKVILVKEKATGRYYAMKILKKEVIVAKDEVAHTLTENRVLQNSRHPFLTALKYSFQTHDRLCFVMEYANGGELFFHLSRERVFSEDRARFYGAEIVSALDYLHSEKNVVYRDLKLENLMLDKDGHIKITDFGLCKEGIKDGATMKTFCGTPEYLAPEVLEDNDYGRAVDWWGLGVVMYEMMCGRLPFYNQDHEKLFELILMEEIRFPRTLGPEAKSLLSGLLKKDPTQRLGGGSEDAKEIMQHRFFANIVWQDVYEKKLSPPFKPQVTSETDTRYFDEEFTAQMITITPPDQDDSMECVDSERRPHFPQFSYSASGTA

In the case of `COc1ncc(-c2cc(NC(C)=O)c3ncc(-c4cccc(C(=O)N(C)C)c4)n3c2)c(OC)n1`, in data set [1], the Activity was -16.75%. Besides, the fold change (FC) in data set [2] is 1.73.
For `COc1ccc(Cl)cc1C(=O)NCCc1ccc(S(=O)(=O)NC(=O)NC2CCCCC2)cc1`, in [3], the outcome was inactive.
With `CCCCCCCCCCCCCCCCCCOC[C@H](COP(=O)(O)O[C@H]1[C@H](O)[C@@H](O)[C@H](O)C[C@H]1OC)OC`, the Activity in data set [4] was 0.75%.
By inhibition is commonly meant the relative decrease from the control value, in per cent. As for `COc1ccc(-c2ccc3ncc(-c4ccncc4)n3n2)cc1OC`, the Activity entry in data set [5] is recorded as “Toxic”; in data set [6], “Non-toxic”; in [8], “Toxic”; in data set [9], 20%; in data set [10], “Non-toxic”. Besides, in data set [7], the inhibition result is “Dose-dependent effect”.
Regarding `COc1cc(-c2cnc3ccc(-c4cc(OC)c(OC)c(OC)c4)nn23)ccc1O`, the inhibition result in data set [7] was “Dose-dependent effect”. Also, the Activity result is given as “Toxic” in data set [8], 20% in data set [9] and “Non-toxic” in [10].
Turning to `CC(=O)Nc1cccc(-c2ccc3ncc(-c4cccc(NC(C)=O)c4)n3n2)c1`, the Activity entry is “Non-toxic” in data set [6]; “Toxic” in [8]; 20% in [9]; “Non-toxic” in data set [11]; “Non-toxic” in data set [10]. Besides, the inhibition entry in data set [7] was “Dose-dependent effect”.
As to `COc1cc(-c2ccc3ncc(-c4cccnc4)n3n2)cc(OC)c1OC`, the Activity entry in [6] is “Non-toxic”; in [8], “Toxic”; in data set [9], 20%; in [11] it was “Non-toxic”; in [10] it was “Non-toxic”. The results for the inhibition result in data set [7] and in data set [12] were “Dose-dependent effect” and 100%, respectively.
`CCN(CC)CCNC(=O)c1c(C)[nH]c(/C=C2\C(=O)Nc3ccc(F)cc32)c1C` [SUNITINIB]: the Activity result in [5] is listed as “Toxic”.
Take `CCCCNC(=O)NS(=O)(=O)c1ccc(C)cc1`: the outcome in data set [3] was inactive.
On to `CN(C)CCNC(=O)c1cccc(-c2cnc3ccc(-c4cccc(NS(C)(=O)=O)c4)nn23)c1`, for which the Activity entry is “Toxic” in [5], “Toxic” in data set [8], 20% in data set [9] and “Non-toxic” in data set [10]. Also, the inhibition result in data set [7] was “Dose-dependent effect”.

The values above are taken from ChEMBL document CHEMBL3727361, “Nitrogen bicyclic compounds as inhibitors for Scyl1 and Grk5” (2014).
